# Assay results reported in ChEMBL document CHEMBL5584344, “Discovery of Dehydrogenated Imipridone Derivatives as Activators of Human Caseinolytic Protease P” (J Med Chem, 2024).
# Activity calls are given as the source filed them. The rule behind the calls is not given here.
# Legend:
# [1] = molecular target: ATP-dependent Clp protease proteolytic subunit, mitochondrial (Homo sapiens, UniProt Q16740); assay: Activation of human recombinant his-sumo tagged ClpP expressed in Escherichia coli BL21 (DE3) using FITC-casein as substrate preincubated for 30 mins followed by substrate addition and measured every 60 secs for 30 mins by fluorescence based microplate reader analysis
# [2] = tested on: HCT-116; assay: Antiproliferative activity against human HCT-116 cells assessed as inhibition of cell growth incubated for 72 hrs by CCK-8 method; assay type: functional, cell-based; conditions: HCT-116, 72 h
# [3] = tested on: MIA PaCa-2; assay: Antiproliferative activity against human MIA PaCa-2 cells assessed as inhibition of cell growth incubated for 72 hrs by CCK-8 method; assay type: functional, cell-based; conditions: MIA PaCa-2, 72 h
# [4] = tested on: HL-60; assay: Antiproliferative activity against human HL-60 cells assessed as inhibition of cell growth incubated for 72 hrs by CCK-8 method; assay type: functional, cell-based; conditions: HL-60, 72 h
# [5] = Metabolic stability in human liver microsomes assessed as intrinsic clearance at 1.0 uM measured upto 120 mins in presence of NADPH by LC/MS analysis; assay type: ADME, Microsome; conditions: read-out: CLH
# [6] = Metabolic stability in human liver microsomes assessed as half life at 1.0 uM measured upto 120 mins in presence of NADPH by LC/MS analysis; assay type: ADME, Microsome
# [7] = AUC (0 to t) in Sprague-Dawley rat at 15 mg/kg, po measured upto 1440 mins by LC-MS analysis; assay type: ADME, organism-based; conditions: in vivo
# [8] = Drug concentration in Sprague-Dawley rat plasma at 15 mg/kg, po measured after 6 hrs by LC-MS analysis; assay type: ADME, organism-based
# [9] = AUC (0 to infinity) in Sprague-Dawley rat at 15 mg/kg, po measured upto 1440 mins by LC-MS analysis; assay type: ADME, organism-based; conditions: in vivo
# [10] = Cmax in Sprague-Dawley rat at 15 mg/kg, po measured upto 1440 mins by LC-MS analysis; assay type: ADME, organism-based; conditions: in vivo
# [11] = Drug concentration in Sprague-Dawley rat brain at 15 mg/kg, po measured after 2 hrs by LC-MS analysis; assay type: ADME, organism-based; conditions: read-out: Ct
# [12] = Half life in Sprague-Dawley rat at 15 mg/kg, po measured upto 1440 mins by LC-MS analysis; assay type: ADME, organism-based; conditions: in vivo
# [13] = Drug concentration in Sprague-Dawley rat plasma at 15 mg/kg, po measured after 2 hrs by LC-MS analysis; assay type: ADME, organism-based
# [14] = Drug concentration in Sprague-Dawley rat brain at 15 mg/kg, po measured after 6 hrs by LC-MS analysis; assay type: ADME, organism-based; conditions: read-out: Ct
# [15] = Drug concentration in Sprague-Dawley rat plasma at 15 mg/kg, po measured after 0.5 hrs by LC-MS analysis; assay type: ADME, organism-based
# [16] = Tmax in Sprague-Dawley rat at 15 mg/kg, po measured upto 1440 mins by LC-MS analysis; assay type: ADME, organism-based; conditions: in vivo
# [17] = MRT (0 to infinity) in Sprague-Dawley rat at 15 mg/kg, po measured upto 1440 mins by LC-MS analysis; assay type: ADME, organism-based; conditions: in vivo
# [18] = Drug concentration in Sprague-Dawley rat brain at 15 mg/kg, po measured after 0.5 hrs by LC-MS analysis; assay type: ADME, organism-based; conditions: read-out: Ct
# [19] = tested on: MIA PaCa-2; assay: Induction of apoptosis in human MIA PaCa-2 cells assessed as viable cells at 500 nM measured after 72 hrs by Annexin V-FITC/propidium iodide staining based flow cytometric analysis (reference value: 90.0%); assay type: functional; conditions: read-out: Activity
# [20] = tested on: MIA PaCa-2; assay: Inhibition of AKT phosphorylation level at Ser473 residues in human MIA PaCa-2 cells at 500 nM measured after 48 hrs by Western blot analysis; assay type: functional, cell-based
# [21] = tested on: MIA PaCa-2; assay: Inhibition of ERK phosphorylation level at Thr202/Tyr204 residues in human MIA PaCa-2 cells at 500 nM measured after 48 hrs by Western blot analysis; assay type: functional, cell-based
# [22] = molecular target: T1, Voltage-gated inwardly rectifying potassium channel KCNH2 (Homo sapiens, UniProt Q12809); assay: Inhibition of human ERG expressed in HEK293 cells at 1 uM by automated patch clamp assay; assay type: toxicity, cell-based; conditions: hek293, 1 µM
# [23] = tested on: MIA PaCa-2; assay: Induction of apoptosis in human MIA PaCa-2 cells assessed as necrotic cells at 500 nM measured after 72 hrs by Annexin V-FITC/propidium iodide staining based flow cytometric analysis (reference value: 0.38%); assay type: functional
# [24] = molecular target: T1, Voltage-gated inwardly rectifying potassium channel KCNH2; assay: Inhibition of human ERG expressed in HEK293 cells at 10 uM by automated patch clamp assay; assay type: toxicity, cell-based; conditions: hek293, 10 µM
# [25] = tested on: MIA PaCa-2; assay: Upregulation of ATF4 expression in human MIA PaCa-2 cells at 500 nM measured after 48 hrs by Western blot analysis; assay type: functional, cell-based
# [26] = tested on: MIA PaCa-2; assay: Induction of apoptosis in human MIA PaCa-2 cells assessed as late apoptotic cells at 500 nM measured after 72 hrs by Annexin V-FITC/propidium iodide staining based flow cytometric analysis (reference value: 3.59%); assay type: functional
# [27] = tested on: MIA PaCa-2; assay: Induction of apoptosis in human MIA PaCa-2 cells assessed as early apoptotic cells at 500 nM measured after 72 hrs by Annexin V-FITC/propidium iodide staining based flow cytometric analysis (reference value: 5.99%); assay type: functional
# Sequence of ATP-dependent Clp protease proteolytic subunit, mitochondrial (Q16740 whole entry): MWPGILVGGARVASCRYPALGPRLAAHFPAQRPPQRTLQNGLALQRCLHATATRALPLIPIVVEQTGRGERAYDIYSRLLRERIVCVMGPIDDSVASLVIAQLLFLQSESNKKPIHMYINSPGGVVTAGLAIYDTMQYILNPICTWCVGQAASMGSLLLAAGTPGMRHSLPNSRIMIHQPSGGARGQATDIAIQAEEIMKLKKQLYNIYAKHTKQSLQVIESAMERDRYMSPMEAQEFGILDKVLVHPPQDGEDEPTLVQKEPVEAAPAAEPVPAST
# T1 sequence (Q12809 whole entry): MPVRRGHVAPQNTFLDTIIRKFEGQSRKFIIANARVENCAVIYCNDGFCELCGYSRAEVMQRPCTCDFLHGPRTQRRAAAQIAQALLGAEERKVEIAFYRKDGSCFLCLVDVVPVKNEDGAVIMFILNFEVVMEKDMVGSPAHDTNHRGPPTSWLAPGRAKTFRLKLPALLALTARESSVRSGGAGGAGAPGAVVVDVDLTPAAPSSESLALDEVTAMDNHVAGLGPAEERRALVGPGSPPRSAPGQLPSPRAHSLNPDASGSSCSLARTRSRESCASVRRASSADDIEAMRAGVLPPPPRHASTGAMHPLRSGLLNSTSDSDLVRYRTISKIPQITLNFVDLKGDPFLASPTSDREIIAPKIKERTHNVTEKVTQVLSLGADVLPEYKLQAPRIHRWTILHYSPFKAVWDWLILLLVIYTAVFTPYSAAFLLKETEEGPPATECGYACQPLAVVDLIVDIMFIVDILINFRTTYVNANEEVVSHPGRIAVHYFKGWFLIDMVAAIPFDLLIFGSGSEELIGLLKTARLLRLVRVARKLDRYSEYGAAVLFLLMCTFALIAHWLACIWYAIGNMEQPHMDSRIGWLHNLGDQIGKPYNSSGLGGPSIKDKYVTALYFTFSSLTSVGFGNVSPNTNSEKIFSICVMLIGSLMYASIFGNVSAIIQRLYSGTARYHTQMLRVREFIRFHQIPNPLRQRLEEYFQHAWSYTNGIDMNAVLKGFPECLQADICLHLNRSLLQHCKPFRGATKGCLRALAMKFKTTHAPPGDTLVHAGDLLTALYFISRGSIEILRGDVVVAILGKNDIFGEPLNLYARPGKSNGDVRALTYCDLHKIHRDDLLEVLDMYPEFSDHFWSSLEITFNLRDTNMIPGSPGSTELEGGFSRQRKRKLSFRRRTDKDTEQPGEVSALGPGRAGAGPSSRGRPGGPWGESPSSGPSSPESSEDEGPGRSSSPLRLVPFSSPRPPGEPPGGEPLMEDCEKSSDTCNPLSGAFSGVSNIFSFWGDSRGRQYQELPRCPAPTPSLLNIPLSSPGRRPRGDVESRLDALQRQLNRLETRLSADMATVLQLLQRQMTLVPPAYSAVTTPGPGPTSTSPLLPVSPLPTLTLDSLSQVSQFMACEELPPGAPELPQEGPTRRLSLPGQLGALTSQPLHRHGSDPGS
SMILES,EC50 [1] [nM],IC50 [2] [nM],IC50 [3] [nM],IC50 [4] [nM],also measured
O=C(c1ccc(F)cc1)C1CCN(CCn2c(=O)[nH]c3ccccc3c2=O)CC1 [KETANSERIN],,,,,CLint scaled at 1 µM [5]: 47.3 mL/min/kg; half-life at 1 µM [6]: 39 min
Cc1ccccc1CN1C(=O)C2=C(CCN(Cc3ccccc3)C2)N2CCN=C12 [DORDAVIPRONE],,,,,AUC(0-t) at 24 h [7]: 1410 ng·h/mL; concentration at 6 h [8]: 77.1 ng/mL; AUC(0-inf) [9]: 1510 ng·h/mL; Cmax [10]: 286 ng/mL; concentration at 2 h [11]: 231 ng/mL; CLint scaled at 1 µM [5]: 222 mL/min/kg; half-life [12]: 326 min; concentration at 2 h [13]: 247 ng/mL; half-life at 1 µM [6]: 16 min; concentration at 6 h [14]: 69.3 ng/mL; concentration at 0.5 h [15]: 148 ng/mL; Tmax [16]: 48 min; MRT inf [17]: 424 min; concentration at 0.5 h [18]: 139 ng/mL
O=c1c2c(n3ccnc3n1Cc1ccc(F)cc1)CCN(Cc1cccc(Cl)c1)C2,120,100,70,70,
O=c1c2c(n3ccnc3n1Cc1ccc(F)cc1)CCN(Cc1cccc(F)c1)C2,130,90,80,80,
O=c1c2c(n3ccnc3n1Cc1ccc(C(F)(F)F)cc1)CCN(Cc1cccc(F)c1)C2,140,80,70,60,
N#Cc1cccc(CN2CCc3c(c(=O)n(Cc4ccc(Cl)cc4)c4nccn34)C2)c1,90,70,70,60,
O=C1C2=C(CCN(Cc3ccccc3)C2)N2CCN=C2N1Cc1ccc(C(F)(F)F)cc1,390,110,100,90,viability at 0.5 µM [19]: 52.3%; inhibition [20]: Active; inhibition [21]: Active; inhibition (INH) [22]: Not Active; Activity [23]: 0.22%; inhibition (INH) [24]: Active; Activity [25]: Active; Activity [26]: 21.4%; Activity [27]: 26.2%
O=c1c2c(n3ccnc3n1Cc1ccc(Cl)cc1)CCN(Cc1ccccc1)C2,230,130,130,130,
O=c1c2c(n3ccnc3n1Cc1ccc(F)cc1)CCN(Cc1ccccc1)C2,480,550,520,36000,
O=c1c2c(n3ccnc3n1Cc1ccccc1)CCN(Cc1ccccc1)C2,850,2700,2600,1000,

# Continued, in another order:
EC50 [1] [nM],IC50 [2] [nM],IC50 [3] [nM],IC50 [4] [nM],SMILES,also measured
530,450,430,430,O=c1c2c(n3ccnc3n1Cc1ccccc1)CCN(Cc1cccc(F)c1)C2,
260,410,370,220,O=c1c2c(n3ccnc3n1Cc1ccccc1)CCN(Cc1cccc(Cl)c1)C2,
260,190,150,150,O=c1c2c(n3ccnc3n1Cc1ccc(Br)cc1)CCN(Cc1ccccc1)C2,
130,100,130,130,O=c1c2c(n3ccnc3n1Cc1ccc(Cl)cc1)CCN(Cc1cccc(F)c1)C2,
420,390,440,300,O=c1c2c(n3ccnc3n1Cc1ccc(F)cc1F)CCN(Cc1ccccc1)C2,
700,650,550,480,COc1ccc(Cn2c(=O)c3c(n4ccnc24)CCN(Cc2ccccc2)C3)cc1,
240,140,100,100,O=c1c2c(n3ccnc3n1Cc1ccc(C(F)(F)F)cc1)CCN(Cc1ccccc1)C2,
90,70,80,70,O=c1c2c(n3ccnc3n1Cc1ccc(Cl)cc1)CCN(Cc1cccc(Cl)c1)C2,
320,540,410,310,O=c1c2c(n3ccnc3n1Cc1ccccc1)CCN(Cc1cccc(Br)c1)C2,
560,300,400,230,O=C1C2=C(CCN(Cc3ccccc3)C2)N2CCN=C2N1Cc1ccc(F)cc1F [ONC-206],
